Results published in the NIST ThermoML archive (doi:10.1021/je1008747).

Conditions: Liquid

CCn1cc[n+](C)c1.C[C@H](O)C(=O)[O-] [3-ethyl-1-methylimidazolium (S)-2-hydroxypropanoate]
Conditions | mass density [kg/m3]
293.15 K, 101.33 kPa | 1149.7
298.15 K, 101.33 kPa | 1146.1
303.15 K, 101.33 kPa | 1142.5
308.15 K, 101.33 kPa | 1139
312.6 K, 100 kPa | 1136
312.6 K, 10000 kPa | 1140
312.6 K, 20000 kPa | 1144
312.6 K, 30000 kPa | 1148
312.6 K, 40000 kPa | 1151
312.6 K, 50000 kPa | 1155
312.6 K, 60000 kPa | 1158
312.6 K, 70000 kPa | 1162
312.6 K, 80000 kPa | 1165
312.6 K, 90000 kPa | 1168
312.6 K, 100000 kPa | 1172
312.6 K, 110000 kPa | 1175
312.6 K, 120000 kPa | 1178
312.6 K, 130000 kPa | 1181
312.6 K, 140000 kPa | 1183
312.6 K, 150000 kPa | 1186
312.6 K, 160000 kPa | 1189
312.6 K, 170000 kPa | 1192
312.6 K, 180000 kPa | 1195
312.6 K, 190000 kPa | 1197
312.6 K, 200000 kPa | 1200
313.15 K, 101.33 kPa | 1135.6
318.15 K, 101.33 kPa | 1132.2
323.15 K, 101.33 kPa | 1128.8
328.15 K, 101.33 kPa | 1125.4
332.1 K, 10000 kPa | 1126
332.1 K, 20000 kPa | 1131
332.1 K, 30000 kPa | 1135
332.1 K, 40000 kPa | 1139
332.1 K, 50000 kPa | 1142
332.1 K, 60000 kPa | 1146
332.1 K, 70000 kPa | 1149
332.1 K, 80000 kPa | 1153
332.1 K, 90000 kPa | 1156
332.1 K, 100000 kPa | 1159
332.1 K, 110000 kPa | 1163
332.1 K, 120000 kPa | 1166
332.1 K, 130000 kPa | 1169
332.1 K, 140000 kPa | 1172
332.1 K, 150000 kPa | 1175
332.1 K, 160000 kPa | 1178
332.1 K, 170000 kPa | 1180
332.1 K, 180000 kPa | 1183
332.1 K, 190000 kPa | 1186
332.1 K, 200000 kPa | 1189
333.15 K, 101.33 kPa | 1122.1
338.15 K, 101.33 kPa | 1118.7
343.15 K, 101.33 kPa | 1115.4
348.15 K, 101.33 kPa | 1112.1
352.1 K, 10000 kPa | 1113
352.1 K, 20000 kPa | 1118
352.1 K, 30000 kPa | 1122
352.1 K, 40000 kPa | 1126
352.1 K, 50000 kPa | 1130
352.1 K, 60000 kPa | 1134
352.1 K, 70000 kPa | 1137
352.1 K, 80000 kPa | 1141
352.1 K, 90000 kPa | 1144
352.1 K, 100000 kPa | 1148
352.1 K, 110000 kPa | 1151
352.1 K, 120000 kPa | 1154
352.1 K, 130000 kPa | 1157
352.1 K, 140000 kPa | 1160
352.1 K, 150000 kPa | 1164
352.1 K, 160000 kPa | 1166
352.1 K, 170000 kPa | 1169
352.1 K, 180000 kPa | 1172
352.1 K, 190000 kPa | 1175
352.1 K, 200000 kPa | 1178
353.15 K, 101.33 kPa | 1108.8
372.2 K, 10000 kPa | 1101
372.2 K, 20000 kPa | 1105
372.2 K, 30000 kPa | 1110
372.2 K, 40000 kPa | 1114
372.2 K, 50000 kPa | 1118
372.2 K, 60000 kPa | 1122
372.2 K, 70000 kPa | 1126
372.2 K, 80000 kPa | 1129
372.2 K, 90000 kPa | 1133
372.2 K, 100000 kPa | 1137
372.2 K, 110000 kPa | 1140
372.2 K, 120000 kPa | 1143
372.2 K, 130000 kPa | 1147
372.2 K, 140000 kPa | 1150
372.2 K, 150000 kPa | 1153
372.2 K, 160000 kPa | 1156
372.2 K, 170000 kPa | 1159
372.2 K, 180000 kPa | 1162
372.2 K, 190000 kPa | 1165
372.2 K, 200000 kPa | 1168
392.4 K, 10000 kPa | 1088
392.4 K, 20000 kPa | 1093
392.4 K, 30000 kPa | 1098
392.4 K, 40000 kPa | 1102
392.4 K, 50000 kPa | 1106
392.4 K, 60000 kPa | 1110
392.4 K, 70000 kPa | 1114
392.4 K, 80000 kPa | 1118
392.4 K, 90000 kPa | 1122
392.4 K, 100000 kPa | 1126
392.4 K, 110000 kPa | 1129
392.4 K, 120000 kPa | 1133
392.4 K, 130000 kPa | 1136
392.4 K, 140000 kPa | 1139
392.4 K, 150000 kPa | 1143
392.4 K, 160000 kPa | 1146
392.4 K, 170000 kPa | 1149
392.4 K, 180000 kPa | 1152
392.4 K, 190000 kPa | 1155
392.4 K, 200000 kPa | 1158
412.4 K, 10000 kPa | 1076
412.4 K, 20000 kPa | 1081
412.4 K, 30000 kPa | 1086
412.4 K, 40000 kPa | 1090
412.4 K, 50000 kPa | 1095
412.4 K, 60000 kPa | 1099
412.4 K, 70000 kPa | 1103
412.4 K, 80000 kPa | 1107
412.4 K, 90000 kPa | 1111
412.4 K, 100000 kPa | 1115
412.4 K, 110000 kPa | 1119
412.4 K, 120000 kPa | 1122
412.4 K, 130000 kPa | 1126
412.4 K, 140000 kPa | 1129
412.4 K, 150000 kPa | 1132
412.4 K, 160000 kPa | 1136
412.4 K, 170000 kPa | 1139
412.4 K, 180000 kPa | 1142
412.4 K, 190000 kPa | 1145
412.4 K, 200000 kPa | 1148
432.2 K, 10000 kPa | 1064
432.2 K, 20000 kPa | 1069
432.2 K, 30000 kPa | 1074
432.2 K, 40000 kPa | 1079
432.2 K, 50000 kPa | 1084
432.2 K, 60000 kPa | 1088
432.2 K, 70000 kPa | 1093
432.2 K, 80000 kPa | 1097
432.2 K, 90000 kPa | 1101
432.2 K, 100000 kPa | 1105
432.2 K, 110000 kPa | 1109
432.2 K, 120000 kPa | 1112
432.2 K, 130000 kPa | 1116
432.2 K, 140000 kPa | 1119
432.2 K, 150000 kPa | 1123
432.2 K, 160000 kPa | 1126
432.2 K, 170000 kPa | 1130
432.2 K, 180000 kPa | 1133
432.2 K, 190000 kPa | 1136
432.2 K, 200000 kPa | 1139
